Laboratory results taken from DBAASP.
Converted amounts (≈) assume the structure as drawn.

How the values were obtained:
Assay in all cases: ≥ marks a high value that may be exact or a test limit, other limits are often not marked, values filed in µg/mL are converted to µM
Micrococcus luteus = tested on: Micrococcus luteus
[1] = tested on: Bacillus subtilis ATCC 23857
[2] = tested on: Escherichia coli ATCC 25922
Bacillus subtilis 168 = tested on: Bacillus subtilis 168
Staphylococcus aureus = tested on: Staphylococcus aureus
[3] = tested on: Staphylococcus aureus ATCC 25923
[4] = tested on: Pseudomonas aeruginosa CMCCB 10104
[5] = tested on: Candida albicans ATCC 2002
[6] = tested on: Staphylococcus epidermidis ATCC 12228
[7] = tested on: Staphylococcus aureus ATCC 29213

Row | SMILES | MIC [1] [µM] | MIC [2] [µM] | MIC [3] [µM] | MIC [4] [µM] | MIC [5] [µM] | further results
1 | CC[C@H](C)[C@H](NC(=O)CNC(=O)[C@H](CO)NC(=O)[C@@H](NC(=O)[C@H](CC(C)C)NC(=O)[C@H](CCC(=O)O)NC(=O)[C@H](CO)NC(=O)[C@H](C)NC(=O)[C@H](CCCCN)NC(=O)[C@H](CC(=O)O)NC(=O)[C@H](CCCCN)NC(=O)[C@@H](NC(=O)[C@H](CCCCN)NC(=O)[C@H](CCC(N)=O)NC(=O)[C@H](Cc1c[nH]c2ccccc12)NC(=O)[C@H](CC(C)C)NC(=O)CN)[C@@H](C)CC)C(C)C)C(=O)N[C@H](C(=O)N[C@@H](CCC(=O)O)C(=O)NCC(=O)N[C@H](C(=O)N[C@@H](CCCCN)C(N)=O)C(C)C)C(C)C [GLWQKIKDKASELVSGIVEGVK] | – | – | – | – | – | MIC (Micrococcus luteus): 0.168 µM (≈ 0.4 µg/mL)
2 | CC[C@H](C)[C@H](NC(=O)CN)C(=O)N[C@@H](C)C(=O)N[C@@H](C)C(=O)NCC(=O)N[C@H](C(=O)N[C@H](C(=O)N[C@H](C(=O)N[C@@H](CCCCN)C(=O)N[C@H](C(=O)N[C@@H](CCCCN)C(=O)N[C@@H](CCCCN)C(N)=O)[C@@H](C)CC)[C@@H](C)CC)[C@@H](C)CC)[C@@H](C)CC [GIAAGIIIKIKK] | ≥ 32 | 32 (≈ 39.2 µg/mL) | – | – | – | –
3 | CSCC[C@H](NC(=O)[C@H](C)NC(=O)[C@H](CCCCN)NC(=O)[C@H](CCCN=C(N)N)NC(=O)[C@H](C)NC(=O)[C@H](CCCN=C(N)N)NC(=O)[C@H](CCC(=O)O)NC(=O)[C@@H](NC(=O)[C@H](CCCCN)NC(=O)CNC(=O)CNC(=O)CNC(=O)[C@H](Cc1ccccc1)NC(=O)[C@H](CCCCN)NC(=O)[C@@H](N)CCCCN)[C@@H](C)O)C(=O)N[C@@H](C)C(=O)N[C@H](C(=O)N[C@@H](CCC(=O)O)C(=O)O)C(C)C [KKFGGGKTERARKAMAVE] | – | 31.8 (≈ 62.5 µg/mL) | – | – | – | MIC (Bacillus subtilis 168): 7.94 µM (≈ 15.6 µg/mL); MIC (Micrococcus luteus): 31.8 µM (≈ 62.5 µg/mL); MIC (Staphylococcus aureus): 7.94 µM (≈ 15.6 µg/mL)
4 | CC[C@H](C)[C@H](NC(=O)CN)C(=O)N[C@H](C(=O)N[C@@H](C)C(=O)N[C@@H](C)C(=O)N[C@H](C(=O)N[C@H](C(=O)N[C@H](C(=O)N[C@@H](CCCCN)C(=O)N[C@H](C(=O)N[C@@H](CCCCN)C(=O)N[C@@H](CCCCN)C(N)=O)[C@@H](C)CC)[C@@H](C)CC)[C@@H](C)CC)[C@@H](C)CC)[C@@H](C)CC [GIIAAIIIKIKK] | 16 (≈ 20.5 µg/mL) | > 128 | – | – | – | –
5 | CC[C@H](C)[C@H](NC(=O)CNC(=O)[C@H](CCCCN)NC(=O)CNC(=O)[C@@H](NC(=O)[C@H](Cc1ccccc1)NC(=O)[C@H](CCCCN)NC(=O)[C@H](CO)NC(=O)[C@H](Cc1ccccc1)NC(=O)[C@H](CC(C)C)NC(=O)CN)C(C)C)C(=O)N[C@@H](CCCCN)C(=O)N[C@@H](CC(N)=O)C(=O)N[C@@H](Cc1ccccc1)C(=O)N[C@@H](CC(C)C)C(=O)N[C@H](C(=O)N[C@@H](CCCCN)C(=O)NCC(=O)N[C@H](C(=O)N[C@@H](CCCCN)C(=O)N[C@@H](Cc1cnc[nH]1)C(=O)N[C@H](C(=O)NCC(=O)N[C@@H](CCCCN)C(=O)N[C@@H](CCC(=O)O)C(=O)N[C@H](C(=O)NCC(=O)N[C@@H](CCSC)C(=O)N[C@@H](CC(=O)O)C(=O)N[C@H](C(=O)N[C@H](C(=O)N[C@@H](CCCN=C(N)N)C(=O)N[C@H](C(=O)NCC(=O)N[C@H](C(=O)N[C@@H](CC(=O)O)C(=O)N[C@H](C(=O)N[C@@H](C)C(=O)NCC(=O)N[C@H]1CSSC[C@@H](C(=O)O)NC(=O)[C@H](C(C)C)NC(=O)CNC(=O)[C@H](CCCCN)NC(=O)[C@H]([C@@H](C)CC)NC(=O)[C@H](CCCCN)NC1=O)C(C)C)[C@@H](C)CC)C(C)C)[C@@H](C)CC)C(C)C)C(C)C)[C@@H](C)CC)C(C)C)[C@@H](C)CC [GLFSKFVGKGIKNFLIKGVKHIGKEVGMDVIRVGIDVAGCKIKGVC] | – | 0.247 (≈ 1.2 µg/mL) | 0.247 (≈ 1.2 µg/mL) | 0.247 (≈ 1.2 µg/mL) | 0.494 (≈ 2.4 µg/mL) | –
6 | CC[C@H](C)[C@H](NC(=O)[C@H](CC(C)C)NC(=O)[C@H](CC(C)C)NC(=O)[C@H](CC(=O)O)NC(=O)[C@H](CCCCN)NC(=O)[C@@H](NC(=O)[C@@H](NC(=O)CNC(=O)[C@H](CCSC)NC(=O)[C@@H](NC(=O)[C@@H](N)CO)C(C)C)[C@@H](C)O)C(C)C)C(=O)NCC(=O)N[C@@H](C)C(=O)NCC(=O)N[C@@H](CCCCN)C(=O)N[C@@H](CO)C(=O)N[C@@H](C)C(=O)N[C@@H](C)C(=O)N[C@@H](CCC(N)=O)C(=O)N[C@@H](CO)C(=O)N[C@H](C(=O)N[C@@H](CC(C)C)C(=O)N[C@@H](CCCCN)C(=O)N[C@@H](C)C(=O)N[C@@H](CC(C)C)C(=O)N[C@@H](CO)C(=O)N[C@H]1CSSC[C@@H](C(=O)O)NC(=O)[C@H](CC(=O)O)NC(=O)[C@H](CCCCN)NC(=O)[C@H](CO)NC(=O)[C@H](CC(C)C)NC(=O)[C@H](CCCCN)NC1=O)C(C)C [SVMGTVKDLLIGAGKSAAQSVLKALSCKLSKDC] | – | 3.16 (≈ 10.5 µg/mL) | 3.16 (≈ 10.5 µg/mL) | 6.32 (≈ 21 µg/mL) | 3.16 (≈ 10.5 µg/mL) | –
7 | CC[C@H](C)[C@H](N)C(=O)N[C@@H](CC(=O)O)C(=O)N[C@@H](Cc1c[nH]c2ccccc12)C(=O)N[C@@H](CCCCN)C(=O)N[C@@H](CCCCN)C(=O)N[C@@H](CC(C)C)C(=O)N1CCC[C@H]1C(=O)N[C@@H](CC(=O)O)C(=O)N[C@@H](C)C(=O)N[C@@H](C)C(=O)N[C@@H](CCCCN)C(=O)N[C@@H](CCC(N)=O)C(=O)N[C@H](C(=O)N[C@@H](CC(C)C)C(N)=O)[C@@H](C)CC [IDWKKLPDAAKQIL] | ≥ 512 | 1020 (≈ 1680 µg/mL) | – | – | – | MIC [6]: > 1020 µM; MIC [7]: > 1020 µM
8 | CC[C@H](C)[C@@H]1NC(=O)[C@H](CCCCN)NC(=O)[C@@H](NC(=O)[C@H](CCCCN)NC(=O)[C@H](CC(C)C)NC(=O)[C@H](CC(N)=O)NC(=O)[C@H](CC(=O)O)NC(=O)[C@H](CC(C)C)NC(=O)[C@H](CC(C)C)NC(=O)[C@H](CC(N)=O)NC(=O)CNC(=O)[C@H](C)NC(=O)[C@H](CCSC)NC(=O)[C@H](CC(N)=O)NC(=O)[C@H](CCCCN)NC(=O)[C@H](C)NC(=O)[C@@H](NC(=O)[C@H](CC(N)=O)NC(=O)[C@H](CCCCN)NC(=O)[C@H](C)NC(=O)[C@@H](NC(=O)[C@H](CC(=O)O)NC(=O)[C@H](CCSC)NC(=O)[C@H](Cc2ccccc2)NC(=O)CN)[C@@H](C)O)C(C)C)CSSC[C@@H](C(=O)O)NC(=O)[C@H](C)NC(=O)[C@H](CCCCN)NC(=O)[C@H]([C@@H](C)O)NC1=O [GFMDTAKNVAKNMAGNLLDNLKCKITKAC] | – | 1.61 (≈ 5 µg/mL) | 0.803 (≈ 2.5 µg/mL) | 3.21 (≈ 9.99 µg/mL) | 0.803 (≈ 2.5 µg/mL) | –
9 | CC[C@H](C)[C@H](NC(=O)[C@H](CC(C)C)NC(=O)[C@H](CCC(N)=O)NC(=O)[C@@H](NC(=O)[C@H](C)NC(=O)CNC(=O)[C@H](CCCCN)NC(=O)[C@@H](NC(=O)[C@H](CC(C)C)NC(=O)[C@@H](NC(=O)[C@H](Cc1ccccc1)NC(=O)[C@@H](NC(=O)CN)C(C)C)[C@@H](C)O)[C@@H](C)CC)[C@@H](C)O)C(=O)NCC(=O)N[C@@H](CCCCN)C(=O)N[C@H](C(=O)N[C@@H](CC(C)C)C(=O)NCC(=O)N[C@@H](CCCCN)C(=O)N[C@@H](CCC(=O)O)C(=O)N[C@H](C(=O)NCC(=O)N[C@@H](CCCCN)C(=O)N[C@H](C(=O)NCC(=O)N[C@@H](CC(C)C)C(=O)N[C@@H](CCC(=O)O)C(=O)N[C@@H](CC(C)C)C(=O)N[C@@H](CCSC)C(=O)N[C@@H](C)C(=O)N[C@H]1CSSC[C@@H](C(=O)O)NC(=O)[C@H](CCC(N)=O)NC(=O)[C@H](CCCCN)NC(=O)[C@H]([C@@H](C)O)NC(=O)[C@H]([C@@H](C)CC)NC(=O)[C@H](CCCCN)NC1=O)[C@@H](C)O)C(C)C)[C@@H](C)O [GVFTLIKGATQLIGKTLGKEVGKTGLELMACKITKQC] | – | 2.09 (≈ 8.1 µg/mL) | 1.06 (≈ 4.1 µg/mL) | 4.18 (≈ 16.2 µg/mL) | 2.09 (≈ 8.1 µg/mL) | –
